Patent US8362263B2 (CJ Cheiljedang Corporation, priority 2006, dated 2013)
Structures can show the parent of a compound that is named as a salt.

Legend:
[1] = Hygroscopicity test (K.F. water content under various humidity); type: physicochemical; conditions: 25° C.; for hygroscopicity (in words): various humidity conditions
[2] = Photostability test (ICH photostable chamber, 25° C., 4 weeks, HPLC content); type: physicochemical; conditions: 4 weeks at 25° C., light source
Description: (§1) <HPLC Analysis Condition> • Detector: UV absorbance (at 237 nm), • Column: Octadecyl silica gel C18 (4.6 mm×150 mm, 5[…]), • mobile phase: Potassium dihydrogen phosphate monobasic (0.03 M): Methanol=4:6 (by volume) • Flow rate: 1.5 ml/min.
An observation was made of content (HPLC) change under the same conditions as in the HPLC analysis for evaluating the thermal stability of samples.

[3] = Thermal stability in liquid state (distilled water, 25° C., dark, 4 weeks); type: physicochemical; conditions: dissolved in distilled water, 4 weeks at 25° C. in the dark
Description: as §1
The observation was made under the same conditions as in the HPLC analysis for evaluating the thermal stability of samples in a solid state.

[4] = Thermal stability in solid state, acceleration test at 60° C. (HPLC content); type: physicochemical
Description: as §1

physchem = conditions: 25 °C

| Compound | water content (K.F. moisture %) ([1]; 25% RH, Post 1 Week) | water content (K.F. moisture %) ([1]; 60% RH, Post 1 Week) | water content (K.F. moisture %) ([1]; 75% RH, Post 1 Week) | water content (K.F. moisture %) ([1]; 95% RH, Post 1 Week) | water content (K.F. moisture %) ([1]; Initial) | hygroscopicity (in words) [1] | appearance on light exposure [2] | content change in liquid state (in words) [3] | content change in 60° C. acceleration test (in words) [4] | water content (K.F. moisture %) ([1]; 95% RH, Post 1 Week, listed as Example 2) | solubility (physchem; pH 1.2, simulated gastric fluid) | solubility (physchem; pH 4, aqueous buffer) | solubility (physchem; pH 6.8, aqueous buffer) | solubility (physchem; water) |
| --- | --- | --- | --- | --- | --- | --- | --- | --- | --- | --- | --- | --- | --- | --- |
| CCOC(=O)C1=C(COCCN)NC(C)=C(C(=O)OC)[C@@H]1c1ccccc1Cl.CCOC(=O)C1=C(COCCN)NC(C)=C(C(=O)OC)[C@@H]1c1ccccc1Cl.O.O.O.O.O.O=S(=O)(O)c1ccccc1.O=S(=O)(O)c1ccccc1 [C. Ex. 1, S-(−)-amlodipine besylate 2.5 hydrate, reference compound] | 7.55% | 7.6% | 7.85% | 7.9% | 7.8% | high in water content from the beginning | turned yellow from white | no significant content changes | little change in content |  |  |  |  |  |
| CCOC(=O)C1=C(COCCN)NC(C)=C(C(=O)OC)[C@@H]1c1ccccc1Cl [Ex. 2, hygroscopic crystalline S-(−)-amlodipine adipic acid salt anhydrous] | 0.8% | 0.9% | 1.3% | 1.62% | 0.7% |  |  |  |  | 1.62% |  |  |  |  |
| CCOC(=O)C1=C(COCCN)NC(C)=C(C(=O)OC)C1c1ccccc1Cl.O=C(O)CCCCC(=O)O (racemic) [C. Ex. 2, crystalline racemic amlodipine adipic acid salt anhydrous, reference compound] | 0.10% | 0.09% | 0.15% | 0.17% | 0.10% | no hygroscopicity |  | no significant content changes | little change in content |  |  |  |  |  |
| CCOC(=O)C1=C(COCCN)NC(C)=C(C(=O)OC)[C@@H]1c1ccccc1Cl [Ex. 1, crystalline S-(−)-amlodipine adipic acid salt anhydrous] | 0.15% | 0.15% | 0.14% | 0.16% | 0.15% | no hygroscopicity |  | no significant content changes | little change in content |  | 81.7 mg/mL | 57.1 mg/mL | 41.3 mg/mL | 18.6 mg/mL |
